For 87 compounds, IC50 results are on record in PubChem BioAssay AID1418 (Emory University Molecular Libraries Screening Center, 2008).

Each structure is given as a SMILES string. Calls of active or inactive are those of the source. The rule behind the calls is not given here.

In this test the target is Induced myeloid leukemia cell differentiation protein Mcl-1 (Homo sapiens) (UniProt Q07820). In words: blockers of Bid binding to Mcl-1 – biochemical, TR-FRET, dose response (AID 1418). To be noted: Mcl-1/Bid peptide binding, TR-FRET (europium/Dy647), 2 hr. On the technique in general: TR-FRET usually uses a lanthanide donor and a delayed reading to cut background.
Chain of Induced myeloid leukemia cell differentiation protein Mcl-1 (Homo sapiens) (Q07820 whole entry, looked up): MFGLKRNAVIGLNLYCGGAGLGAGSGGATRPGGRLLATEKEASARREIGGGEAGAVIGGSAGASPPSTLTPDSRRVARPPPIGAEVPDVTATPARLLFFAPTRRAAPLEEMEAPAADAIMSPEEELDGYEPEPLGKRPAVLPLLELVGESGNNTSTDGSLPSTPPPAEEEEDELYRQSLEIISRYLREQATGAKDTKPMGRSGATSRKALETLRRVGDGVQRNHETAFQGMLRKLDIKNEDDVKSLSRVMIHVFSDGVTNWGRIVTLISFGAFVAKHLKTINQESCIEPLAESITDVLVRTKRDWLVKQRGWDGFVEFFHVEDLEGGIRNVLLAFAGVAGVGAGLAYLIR

Broadly, the IC50 is the concentration at which inhibition is half-maximal. On to `N#Cc1nc(COc2ccc(F)cc2)oc1N1CCN(Cc2ccccc2)CC1`, for which the IC50 was > 54 µM (inactive). Next, `O=C(CNc1ccc2ccccc2c1)N/N=C/c1ccc([N+](=O)[O-])o1`: > 54 µM (inactive); `CCN1C(=O)c2cccc3c(S(=O)(=O)Nc4ccccc4OC)ccc1c23`: > 54 µM (inactive). Next, `Cc1ccc(NC(=S)N2CCN(c3ncccn3)CC2)cc1C`: > 54 µM (inactive). For `Cc1nc(C)n(CC(O)COc2ccc3c(c2)CCC3)n1` (configuration not stated) the value was > 54 µM (inactive); for `COc1ccc2[nH]c(=O)c(CNC3CCCCC3)cc2c1`, > 54 µM (inactive); for `O=C1OC(c2ccccc2)=C/C1=C/N1CCCCC1`, > 54 µM (inactive). In the case of `O=C(CSc1nc2ccccc2c2nc3ccccc3n12)NCc1ccco1`, the IC50 is 2.5 µM. Next, `COc1ccc(-c2csc(/C(C#N)=C\c3ccc(O)c([N+](=O)[O-])c3)n2)cc1OC`: > 54 µM (inactive); `O=C(O)CCCC(=O)Nc1cccc(C(=O)Nc2ccccc2C(=O)O)c1`: > 54 µM (inactive). As to `COc1ccccc1NS(=O)(=O)c1cccc(NC(=O)C2CC(=O)N(Cc3ccccc3)C2)c1` (configuration not stated), the IC50 was > 54 µM (inactive). `O=C(Nc1ccc(CCC(=O)N2CCCC2)cc1)c1ncn[nH]1`: the IC50 was > 54 µM (inactive). For `CCOc1ccc(NC(=O)CC2C(=O)N(c3ccc(OC)cc3)C(=S)N2Cc2ccccn2)cc1` (configuration not stated) the value was > 54 µM (inactive).

On to `c1ccc2nc3ccccc3nc2c1`, for which the IC50 was > 54 µM (inactive). Next, `CC(NC(=O)Cn1cnc2c1c(=O)n(C)c(=O)n2C)c1ccccc1` (configuration not stated): > 54 µM (inactive); `O=C(N/N=C/c1cccc([N+](=O)[O-])c1)c1cc2c(ccc3ccccc32)o1`: 1.64 µM; `O=c1c2cc(Cl)ccc2nc(-c2ccccc2Cl)n1O`: > 54 µM (inactive). Next, `Cc1sc(NC(=O)c2ccccc2)c(C(=O)N2CCN(C)CC2)c1C`: > 54 µM (inactive); `Cc1ccnc(N/C=C(\C#N)c2nc(-c3cccc(Br)c3)cs2)c1`: 0.79 µM; `CCc1nnc(NS(=O)(=O)c2ccc(NC(=S)NC(=O)/C=C/c3ccc(C(C)C)cc3)cc2)s1`: 3.99 µM.

Take `Cc1cc(C)nc(NCC(O)COc2ccccc2C)n1` (configuration not stated): the IC50 was > 54 µM (inactive). Next, `CN(CCN(C)C(C)(C)C)C(=O)C(c1ccccc1)c1ccccc1`: > 54 µM (inactive). For `O=C(C[n+]1cc(-c2ccccc2)n2c1CCC2)N1c2ccccc2Sc2ccccc21`, the IC50 was > 54 µM (inactive). With `CCOc1ccc(/C=C/C(=O)Nc2ccc(N3CCOCC3)cc2)cc1`, the IC50 was > 54 µM (inactive).

In the case of `CCC(=NC(C)c1ccccc1)c1c(O)[nH]c(=O)[nH]c1=O` (configuration not stated), the IC50 is 0.45 µM. As for `CCN1CCc2c(OCc3ccc(C(=O)OC)o3)cccc2C1=O`, the IC50 was > 54 µM (inactive). For `C#CCOCCOCCOCCNc1nc(N2CCN(C(=O)[C@H](CCC(=O)O)n3cc(C(N)CC(C)C)nn3)CC2)nc(N2CCN(C(=O)[C@H](CCC(=O)O)n3cc(C(N)[C@H](C)CC)nn3)CC2)n1` (some centres not stated) the value was 1 µM; for `O=C(Nc1nccs1)c1cccc(N2C(=O)c3cccc4c([N+](=O)[O-])ccc(c34)C2=O)c1`, 0.53 µM; for `CCn1c(C)cc(/C=C2\NC(=O)N(Cc3ccc(Cl)cc3)C2=O)c1C`, 9.26 µM. Next, `COc1ccc2[nH]c3c(=O)n(Cc4ccco4)cnc3c2c1`: > 54 µM (inactive); `O=C1NC(=S)N(C2CC2)C(=O)/C1=C/c1ccc2c(c1)CCN2CCCCl`: 0.66 µM. For `Cc1ccc2oc(C(F)(F)C(F)F)cc(=O)c2c1` the value was “inactive”. For the compound `COC(=O)c1c(C)[nH]c(C(=O)C(C)[N+]23CCN(CC2)CC3)c1C` (configuration not stated), the half-inhibitory concentration (IC50) was 2.85 µM. For `COc1ccc(NC(=O)Nc2nnc(CC(=O)NCc3ccccc3)s2)cc1` the value was > 54 µM (inactive). Next, `CC(C)(C)CC(=O)O/N=C(\N)c1ccccn1`: > 54 µM (inactive); `CSC(=NCc1cccnc1)NS(=O)(=O)c1cccs1`: > 54 µM (inactive). On to `COc1cccc(C(=O)Nc2ccc3c(c2)C(=O)c2ccccc2C3=O)c1`, for which the concentration for half-maximal inhibition (IC50) was 2.79 µM. For the compound `NC(=S)n1[nH]c(-c2ccc([N+](=O)[O-])cc2)c(N=Nc2cccc([N+](=O)[O-])c2)c1=O`, the IC50 is 2.37 µM. As to `O=C(/C=C/N1CCOCC1)c1coc2ccccc12`, the IC50 was > 54 µM (inactive). For `CCOC(=O)c1sc(N2N=C(C)C(N=Nc3cccc(C)c3)C2=O)nc1C` (configuration not stated) the value was 1.42 µM. For the compound `Cc1cccc(Cn2c(C)nc3c(N)c(C)c(C)cc32)c1`, the IC50 is > 54 µM (inactive). On to `O=C(Cn1c(C(F)(F)F)nc2ccccc21)c1ccc(F)cc1`, for which the IC50 is > 54 µM (inactive).

On to `Cc1ccc(NC(=O)Cn2c(O)c(N=NC(=O)c3cc4ccccc4cc3O)c3ccccc32)cc1`, for which the IC50 was 6.65 µM. Next, `COc1ccc(NC(=O)c2[nH]ncc2[N+](=O)[O-])cc1`: > 54 µM (inactive); `CCN1/C(=C\C=C2\C(=O)N(c3ccccc3)C(=S)N2C)Sc2ccccc21`: 2.97 µM; `Cc1ccc(S(=O)(=O)/N=C(\CCl)N2CCOCC2)cc1`: > 54 µM (inactive).

`N#Cc1ccccc1Cn1c(-c2cscn2)nc2ccccc21`: the IC50 is > 54 µM (inactive). As to `Cc1ccc(-n2c(SCC(=O)NCc3ccco3)nc3sc4c(c3c2=O)CC(C)(C)SC4)cc1`, the IC50 is > 54 µM (inactive). For `COc1cc2c(cc1OC)C(Nn1cnnc1)=NC1(CCCC1)C2` the value was > 54 µM (inactive); for `CCOC(=O)NC(=O)/C(C#N)=C/c1ccc(N(C)C)cc1`, > 54 µM (inactive). Take `CN(C)CCCCOc1ccccc1-c1ccccc1`: the IC50 was > 54 µM (inactive). As to `CCN(CC)S(=O)(=O)c1ccc(NC(=O)Nc2cccc(C(F)(F)F)c2)cc1`, the IC50 was > 54 µM (inactive). As to `CCCc1nc2oc3cc(OC)ccc3c(=O)c2c(=O)n1CCc1ccccc1`, the IC50 is > 54 µM (inactive). Next, `COC(=O)C(CC(C)C)NC(=O)c1ccc(F)cc1` (configuration not stated): > 54 µM (inactive).

For the compound `O=C(CSc1nnc2scc(-c3ccccc3)n12)N1CCN(Cc2ccccc2)CC1`, the IC50 was > 54 µM (inactive).

As to `CCN(CC)c1ccc(/C=N/Nc2cccc(C)c2)c(O)c1`, the IC50 was > 54 µM (inactive). Take `Cc1cc(N2CC(C)OC(C)C2)n2cc(-c3ccccc3)nc2n1` (configuration not stated): the IC50 was > 54 µM (inactive). On to `O=C1NC(CCc2ccccc2)C(=O)N1Cc1ccccc1Cl` (configuration not stated), for which the IC50 was > 54 µM (inactive). With `C=CCn1c(SCC(=O)c2[nH]c(C)c(C(=O)OCC)c2C)nc2scc(-c3ccc(OC)c(OC)c3)c2c1=O`, the IC50 is 0.84 µM. With `CC(C)(C)c1c(Cl)c(O)c(-c2ccccc2)c(=O)n1-c1ccccc1`, the IC50 was 0.68 µM. Next, `COc1cc(/C=N/Nc2nnc3c(n2)[nH]c2ccccc23)ccc1O`: 2.66 µM; `O=C(CCCN1C(=O)c2ccccc2C1=O)NCCCn1ccnc1`: > 54 µM (inactive). On to `CCOC(=O)C1CCN(CC(=O)Nc2c(C(=O)OC)[nH]c3cccc(Cl)c23)CC1`, for which the IC50 is > 54 µM (inactive). Next, `O=C(O)COc1ccccc1C(Nc1ccccn1)c1cc(Cl)c2cccnc2c1O` (configuration not stated): 5.42 µM.

As for `COC(=O)c1cccc(OCC(O)Cn2ccnc2)c1` (configuration not stated), the IC50 is > 54 µM (inactive). Consider `C[N+](C)(C)c1ccc(/C=N/Nc2nc(Cl)c(C#N)c(Cl)c2Cl)cc1`, for which the IC50 is > 54 µM (inactive). `Clc1ccc(OCCN2CCCCC2)c(Cl)c1`: the IC50 is > 54 µM (inactive).

For the compound `COc1cc(C(=O)Nc2ccc3c(c2)C(=O)c2ccccc2C3=O)cc(OC)c1OC`, the IC50 is 9.01 µM. For `CC1(C)Oc2ccc3ccc(=O)oc3c2C[C@H]1O` the value was > 54 µM (inactive); for `COc1cc(CNc2ccc(O)cc2)cc(Br)c1OCc1ccccc1F`, > 54 µM (inactive); for `O=C(Nc1ccc(S(=O)(=O)Nc2nccs2)cc1)c1cc(-c2ccccc2Cl)nc2ccccc12`, > 54 µM (inactive). In the case of `COc1ccc(-n2cccc2/C=C2\C(=N)N3N=C(c4ccco4)SC3=NC2=O)cc1`, the IC50 was 3.22 µM. For `Cc1ccccc1OCCNC(=O)CNC(=O)c1ccccc1O` the value was > 54 µM (inactive); for `C#CCOCCOCCOCCNc1nc(N2CCN(C(=O)[C@H](CCC(=O)O)n3cc(C(N)CC(C)C)nn3)CC2)nc(N2CCN(C(=O)[C@H](CCC(=O)O)n3cc(C(N)CC(C)C)nn3)CC2)n1` (some centres not stated), 15.2 µM.

Consider `O=C(NCc1nc2ncc(Br)cc2[nH]1)c1ccccc1`, for which the IC50 was > 54 µM (inactive). For `O=C1NC(=S)N/C1=C/c1ccc(-c2c(Br)cc([N+](=O)[O-])cc2Br)o1` the value was 1.59 µM. For `CC(C)c1[nH]nc2c1C(c1cccnc1)C(C#N)=C(N)O2` (configuration not stated) the value was > 54 µM (inactive). As for `CC(C)NC(=O)C1CCCN(S(=O)(=O)c2ccc(-n3cnnn3)cc2)C1` (configuration not stated), the IC50 was > 54 µM (inactive). For `CN1CCN(Cc2cccc(Oc3ccc(Cl)cc3)c2)CC1` the value was > 54 µM (inactive). In the case of `Cc1cc(C)c2c(c1)C1C=CCC1C(c1ccc(S(=O)(=O)N3CCOCC3)cc1)N2` (configuration not stated), the IC50 is > 54 µM (inactive). `Cc1ccc(N=Nc2c(N)[nH]n3c(=O)cc(-c4ccccc4)nc23)cc1`: the IC50 result is “inactive”. For the compound `Cc1ccc2cc(/C=N/NC(=O)CN3CCOCC3)c(Cl)nc2c1`, the IC50 was > 54 µM (inactive). For `CC1CCCN(C(=S)Nc2ccc3nc4n(c(=O)c3c2)CCCCC4)C1` (configuration not stated) the value was > 54 µM (inactive); for `CC1=NOC(=O)/C1=C/c1ccc(-c2ccc(Cl)cc2)o1`, 8.87 µM. Next, `COC(=O)c1cccc(NC(=S)Nc2cccc(Cl)c2Cl)c1`: > 54 µM (inactive); `COc1cc(S(=O)(=O)Nc2cccc(C)c2)ccc1NC(=O)c1ccncc1`: > 54 µM (inactive); `CCOc1cc(N2CCOCC2)c(OCC)cc1NC(=O)CN1CCc2ccccc2C1`: > 54 µM (inactive).
